Reference: ChEMBL document CHEMBL3431459, “Roche carnitine palmitoyltransferase modulator screening data (supplementary data associated with the publication CHEMBL2216752)”
Values after ≈ are worked out from the molar mass of the structure shown.

Assays:
[1] = SUPPLEMENTARY: Lyophilisation Solubility Assay (LYSA); format: physicochemical; conditions: read-out: Kinetic_solubility
[2] = SUPPLEMENTARY: PAMPA permeability assay; format: physicochemical; conditions: read-out: Permeability
[3] = target: T1, Carnitine O-palmitoyltransferase 2, mitochondrial (Rattus norvegicus, UniProt P18886); assay: (§1) SUPPLEMENTARY: Inhibition of Carnitine palmitoyltransferase 2
T1 sequence (P18886 whole entry): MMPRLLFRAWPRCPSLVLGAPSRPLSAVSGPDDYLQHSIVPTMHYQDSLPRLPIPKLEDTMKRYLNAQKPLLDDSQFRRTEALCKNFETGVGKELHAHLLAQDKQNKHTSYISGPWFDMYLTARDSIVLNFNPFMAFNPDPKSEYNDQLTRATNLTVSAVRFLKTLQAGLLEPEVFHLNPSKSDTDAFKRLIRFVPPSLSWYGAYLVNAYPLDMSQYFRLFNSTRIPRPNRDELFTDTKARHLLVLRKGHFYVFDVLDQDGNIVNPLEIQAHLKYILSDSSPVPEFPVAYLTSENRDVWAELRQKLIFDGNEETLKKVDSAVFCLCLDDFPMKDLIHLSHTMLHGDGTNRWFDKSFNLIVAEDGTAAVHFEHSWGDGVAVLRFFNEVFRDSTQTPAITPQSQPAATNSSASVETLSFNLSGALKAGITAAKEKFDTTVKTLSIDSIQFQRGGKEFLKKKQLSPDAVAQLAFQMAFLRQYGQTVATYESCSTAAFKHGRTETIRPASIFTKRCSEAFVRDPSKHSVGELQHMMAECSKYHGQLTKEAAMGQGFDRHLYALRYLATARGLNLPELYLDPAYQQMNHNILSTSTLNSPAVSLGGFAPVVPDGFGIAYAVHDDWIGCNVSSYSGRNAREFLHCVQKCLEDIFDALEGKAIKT

[4] = target: T2, Carnitine O-palmitoyltransferase 2, mitochondrial (Homo sapiens, UniProt P23786); assay: as §1
T2 sequence (P23786 whole entry): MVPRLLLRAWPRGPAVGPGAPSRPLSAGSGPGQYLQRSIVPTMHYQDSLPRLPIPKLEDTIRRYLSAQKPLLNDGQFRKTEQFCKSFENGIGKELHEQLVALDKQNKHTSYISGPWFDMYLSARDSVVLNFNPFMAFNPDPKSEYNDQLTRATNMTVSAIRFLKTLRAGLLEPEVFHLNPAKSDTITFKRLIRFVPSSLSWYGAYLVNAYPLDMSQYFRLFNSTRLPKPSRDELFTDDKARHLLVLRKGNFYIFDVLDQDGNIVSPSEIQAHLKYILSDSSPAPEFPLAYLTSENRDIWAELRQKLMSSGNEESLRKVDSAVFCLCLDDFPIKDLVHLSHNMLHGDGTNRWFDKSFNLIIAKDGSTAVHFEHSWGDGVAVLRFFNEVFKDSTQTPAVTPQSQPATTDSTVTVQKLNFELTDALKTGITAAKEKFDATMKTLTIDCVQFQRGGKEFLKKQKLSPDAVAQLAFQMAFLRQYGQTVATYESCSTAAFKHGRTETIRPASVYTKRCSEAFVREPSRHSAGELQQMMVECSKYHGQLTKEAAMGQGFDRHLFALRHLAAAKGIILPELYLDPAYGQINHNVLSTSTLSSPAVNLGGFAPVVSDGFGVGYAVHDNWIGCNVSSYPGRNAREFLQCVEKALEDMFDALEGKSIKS

[5] = SUPPLEMENTARY: Lipophilicity (log D) Determination by high-throughput shake-flask; format: physicochemical; conditions: octanol/water
[6] = target: T3, Carnitine O-palmitoyltransferase 1, liver isoform (Rattus norvegicus, UniProt P32198); assay: (§2) SUPPLEMENTARY: Inhibition of Carnitine palmitoyltransferase 1, liver isoform
T3 sequence (P32198 whole entry): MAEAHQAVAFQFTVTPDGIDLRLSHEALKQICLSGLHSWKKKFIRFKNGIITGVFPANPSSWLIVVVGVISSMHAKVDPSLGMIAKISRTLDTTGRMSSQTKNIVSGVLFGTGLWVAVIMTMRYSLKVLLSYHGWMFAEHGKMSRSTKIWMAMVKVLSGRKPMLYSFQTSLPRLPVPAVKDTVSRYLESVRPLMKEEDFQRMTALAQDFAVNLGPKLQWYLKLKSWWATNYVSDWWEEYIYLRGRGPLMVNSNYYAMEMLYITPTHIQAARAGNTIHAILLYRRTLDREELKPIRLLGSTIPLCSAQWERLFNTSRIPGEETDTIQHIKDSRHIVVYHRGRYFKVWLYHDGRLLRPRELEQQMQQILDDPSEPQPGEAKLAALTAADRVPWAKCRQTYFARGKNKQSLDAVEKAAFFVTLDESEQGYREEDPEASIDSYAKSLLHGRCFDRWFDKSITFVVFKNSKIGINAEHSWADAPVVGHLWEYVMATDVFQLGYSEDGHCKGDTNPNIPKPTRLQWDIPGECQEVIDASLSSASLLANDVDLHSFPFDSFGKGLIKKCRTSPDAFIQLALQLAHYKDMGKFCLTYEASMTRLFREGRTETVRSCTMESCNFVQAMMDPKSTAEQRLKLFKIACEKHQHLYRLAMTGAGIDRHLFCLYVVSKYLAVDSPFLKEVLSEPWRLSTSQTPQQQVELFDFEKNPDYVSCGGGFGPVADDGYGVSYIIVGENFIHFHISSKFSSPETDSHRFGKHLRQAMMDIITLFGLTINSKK

[7] = target: T4, Carnitine O-palmitoyltransferase 1, liver isoform (Homo sapiens, UniProt P50416); assay: as §2
T4 sequence (P50416 whole entry): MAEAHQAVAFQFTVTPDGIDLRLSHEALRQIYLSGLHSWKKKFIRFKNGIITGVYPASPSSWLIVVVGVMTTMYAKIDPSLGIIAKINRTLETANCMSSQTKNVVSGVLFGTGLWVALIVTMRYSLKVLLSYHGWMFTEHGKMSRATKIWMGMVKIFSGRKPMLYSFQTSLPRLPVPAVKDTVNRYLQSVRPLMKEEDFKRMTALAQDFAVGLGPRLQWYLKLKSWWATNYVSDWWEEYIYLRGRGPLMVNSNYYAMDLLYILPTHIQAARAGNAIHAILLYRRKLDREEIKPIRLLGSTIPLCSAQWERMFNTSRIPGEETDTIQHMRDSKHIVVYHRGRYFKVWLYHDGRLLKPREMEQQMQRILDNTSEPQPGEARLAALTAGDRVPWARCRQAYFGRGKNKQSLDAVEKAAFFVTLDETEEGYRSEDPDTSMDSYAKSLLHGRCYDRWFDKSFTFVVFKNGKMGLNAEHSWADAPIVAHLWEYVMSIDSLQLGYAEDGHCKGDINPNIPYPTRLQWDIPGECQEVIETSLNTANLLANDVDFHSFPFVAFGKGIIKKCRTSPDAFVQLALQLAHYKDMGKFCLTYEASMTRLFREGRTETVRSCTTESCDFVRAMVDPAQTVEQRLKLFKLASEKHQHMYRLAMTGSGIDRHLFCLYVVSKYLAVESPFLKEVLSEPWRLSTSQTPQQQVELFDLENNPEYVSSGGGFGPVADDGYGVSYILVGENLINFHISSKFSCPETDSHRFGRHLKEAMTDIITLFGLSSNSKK

[8] = target: T5, Carnitine O-palmitoyltransferase 1, muscle isoform (Homo sapiens, UniProt Q92523); assay: SUPPLEMENTARY: Inhibition of Carnitine palmitoyltransferase 1, muscle isoform; parameters: species or system Muscle tissue
T5 sequence (Q92523 whole entry): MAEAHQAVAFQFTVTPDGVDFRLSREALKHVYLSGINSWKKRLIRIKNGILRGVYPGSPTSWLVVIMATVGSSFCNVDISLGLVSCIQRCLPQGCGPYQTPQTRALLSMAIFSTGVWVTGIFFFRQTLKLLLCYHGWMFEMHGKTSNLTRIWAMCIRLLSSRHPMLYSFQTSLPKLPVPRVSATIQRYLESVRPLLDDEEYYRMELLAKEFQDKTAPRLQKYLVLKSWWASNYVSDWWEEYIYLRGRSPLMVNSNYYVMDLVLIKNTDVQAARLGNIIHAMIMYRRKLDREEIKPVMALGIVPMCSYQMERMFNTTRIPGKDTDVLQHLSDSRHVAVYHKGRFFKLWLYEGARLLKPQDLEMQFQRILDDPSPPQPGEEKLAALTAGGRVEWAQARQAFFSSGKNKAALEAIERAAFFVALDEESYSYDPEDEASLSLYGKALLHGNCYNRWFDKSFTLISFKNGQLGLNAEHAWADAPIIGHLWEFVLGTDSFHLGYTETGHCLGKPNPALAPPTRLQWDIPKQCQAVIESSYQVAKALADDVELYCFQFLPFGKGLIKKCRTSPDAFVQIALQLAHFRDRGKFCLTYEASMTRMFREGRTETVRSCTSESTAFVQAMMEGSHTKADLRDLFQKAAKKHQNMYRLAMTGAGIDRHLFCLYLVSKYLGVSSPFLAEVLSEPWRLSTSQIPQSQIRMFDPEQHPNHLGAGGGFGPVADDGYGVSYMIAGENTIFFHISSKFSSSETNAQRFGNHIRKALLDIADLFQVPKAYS

Row | Structure (SMILES) | solubility kinetic [1] [µg/mL] | Papp [2] [×10⁻⁶ cm/s] | IC50 [3] [nM] | IC50 [4] [nM] | logD [5] | IC50 [6] [nM] | IC50 [7] [nM] | IC50 [8] [nM]
1 | CCn1c(C)nc(Cl)c1-c1noc([C@H]2CCCCN2C(=O)COc2ccccc2)n1 | 24 (≈ 55.8 µM) | 3.98 | > 100000 | 37300 | 3.17 | 164 | 73.8 | > 100000
2 | Cn1cnc(Br)c1-c1noc([C@H]2CCCCN2C(=O)COc2ccccc2)n1 | 83 (≈ 186 µM) | 5.6 | > 100000 | 40500 | 2.68 | 250 | 79.3 | > 100000
3 | Cc1cc(-c2noc([C@H]3CCCCN3C(=O)COc3ccccc3)n2)n(C)n1 | 30 (≈ 78.7 µM) | 4.34 | > 100000 | > 100000 | 3.15 | 507 | 119 | > 100000
4 | Cc1nn(C)c(-c2noc([C@H]3CCCCN3C(=O)COc3ccccc3)n2)c1Cl | < 1 | 1.68 | > 100000 | > 100000 | 3.61 | 252 | 79.1 | > 100000
5 | Cc1cc(-c2noc([C@H]3CCCCN3C(=O)COc3ccccc3)n2)no1 | 141 (≈ 383 µM) | 3.94 | > 100000 | > 100000 | 2.34 | 611 | 137 | > 100000
6 | COc1ccc(Cl)cc1S(=O)(=O)N1COc2ccc(C(=O)Nc3nc(CC(=O)O)cs3)cc21 | 519 (≈ 1020 µM) | 2.93 | > 100000 | > 100000 | 0.13 | 18.4 | 53.3 | 661
7 | COc1ccc(Cl)cc1S(=O)(=O)N1COc2ccc(C(=O)Nc3ccc(CC(=O)O)cc3)cc21 | 46 (≈ 91.5 µM) | 3.01 | > 100000 | > 100000 | 0.28 | 165 | 159 | 504
8 | O=C(COc1ccccc1)N1CCCC[C@@H]1c1noc(C2CCCCC2)n1 | < 1 | 0.965 | > 100000 | 47600 | 3.31 | 664 | 86.5 | > 100000
9 | COC1CCC(c2nc([C@H]3CCCCN3C(=O)COc3ccccc3)no2)CC1 (stereo not given in full) | 50.5 (≈ 126 µM) | 3.5 | > 100000 | 78400 | 2.83 | 222 | 191 | > 100000

Next, values leading:

Row | solubility kinetic [1] [µg/mL] | Papp [2] [×10⁻⁶ cm/s] | IC50 [3] [nM] | IC50 [4] [nM] | logD [5] | IC50 [6] [nM] | IC50 [7] [nM] | IC50 [8] [nM] | Structure (SMILES)
10 | 27 (≈ 70 µM) | 5.95 | > 100000 | > 100000 | 3.04 | 1670 | 293 | > 100000 | Cc1nnsc1-c1noc([C@H]2CCCCN2C(=O)COc2ccccc2)n1
11 | 11 (≈ 25.7 µM) | 2.24 | 85500 | 57300 | 2.9 | 479 | 148 | > 100000 | COC(=O)[C@H]1CCCC[C@@H]1c1nc([C@H]2CCCCN2C(=O)COc2ccccc2)no1
12 | < 1 | 0.49 | 21700 | 6090 | 3.29 | 247 | 91.2 | 22700 | CC1(C)NC(=O)N(c2ccc(Cl)c(-c3nc([C@H]4CCCCN4C(=O)COc4ccccc4)no3)c2)C1=O
13 | 380 (≈ 684 µM) | 1.45 | 5740 | 1720 | 0.42 | 166 | 131 | 5110 | COc1ccc(Cl)cc1S(=O)(=O)N1CCOc2c(F)cc(C(=O)Nc3ccc(C(=O)O)c(Cl)c3)cc21
14 | 1 (≈ 1.86 µM) | 2.19 | 28200 | 578 | 3.15 | 49.4 | 77 | 2610 | COc1ccc(Cl)cc1S(=O)(=O)N1CCOc2c(Cl)cc(C(=O)Nc3ccc(C(=O)O)cc3)cc21
15 | 13 (≈ 25.8 µM) | 1.85 | 2010 | 312 | 1.32 | 79.4 | 78.2 | 35900 | COc1ccc(Cl)cc1S(=O)(=O)N1COc2c(C)cc(C(=O)Nc3ccc(C(=O)O)cc3)cc21
